Reference: patent US8389527B2, “Substituted imidazopyridazines useful as kinase inhibitors” (Bristol-Myers Squibb Company, priority 2008, dated 2013)

Columns and labels:
recombinant CK2A2 = target: T1, recombinant CK2A2 (Homo sapiens, UniProt P19784); test: CK2 kinase assay (CK2A2), [γ-33P]ATP filter-binding; assay type: biochemical; conditions: recombinant CK2A2 5 nM, ATP 5 μM, 10 μM peptide substrate, 30° C. 1 h
T1 construct: purchased Upstate Biotechnology
Experimental: (§1) The effectiveness of compounds of the present invention as inhibitors of protein kinases can be readily tested by assays known to those skilled in the art. For example, in vitro protein kinase assays may be conducted with a relevant purified protein kinase and an appropriate synthetic substrate to determine the inhibitory activities of the compounds. […] Reaction mixtures were incubated at 30° C. for 1 h, and reaction products were captured by binding to phosphocellulose (P81) filter plates. Incorporation of radioactive phosphate into the peptide substrate was determined by liquid scintillation counting. The potency of compounds in inhibiting CK2 is expressed as IC50, defined as the concentrations of compounds required to inhibit the enzymatic activity by 50%.

recombinant CK2A1 = target: T2, recombinant CK2A1 (Homo sapiens, UniProt P68400); test: CK2 kinase assay (CK2A1), [γ-33P]ATP filter-binding; assay type: biochemical; conditions: recombinant CK2A1 10 nM, ATP 25 μM, 10 μM peptide substrate, 30° C. 1 h
T2 construct: purchased Invitrogen
T2 sequence (P68400 whole entry): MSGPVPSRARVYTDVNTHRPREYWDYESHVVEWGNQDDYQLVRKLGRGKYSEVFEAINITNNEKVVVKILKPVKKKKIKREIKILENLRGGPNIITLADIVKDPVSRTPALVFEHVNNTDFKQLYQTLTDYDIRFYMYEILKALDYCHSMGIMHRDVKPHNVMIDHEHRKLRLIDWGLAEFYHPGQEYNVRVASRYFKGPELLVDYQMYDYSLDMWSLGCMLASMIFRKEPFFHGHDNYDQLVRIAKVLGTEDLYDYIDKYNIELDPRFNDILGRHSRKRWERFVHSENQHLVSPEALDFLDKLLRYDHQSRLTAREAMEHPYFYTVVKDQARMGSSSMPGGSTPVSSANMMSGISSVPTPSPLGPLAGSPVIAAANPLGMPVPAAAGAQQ
Experimental: as §1

HCT116 = test: Cell proliferation inhibition assay (MTT, CellTiter96); assay type: cell-based; conditions: Homo sapiens, HCT-116; HCT116 cells, 72 h with compound, MTT readout
Experimental: B. Cell Proliferation Inhibition Assay
Compounds were evaluated for their ability to inhibit cell proliferation, using an assay that measures mitochondrial metabolic activity, that is directly correlated with cell numbers. Cells were plated at 2000 cells/well in 96-well plates and were cultured for 24 h in RPMI-1640 supplemented with 2% fetal bovine serum, before test compounds were added. Compounds were diluted in culture medium such that the final concentration of dimethyl sulfoxide never exceeded 1%. Following the addition of compounds, the cells were cultured for an additional 72 h before cell viability was determined by measuring the conversion of 3-(4,5-dimethylthiazol-2-yl)-2,5-diphenyltetrazolium bromide (MTT) dye using the CellTiter96 kit (Promega).

T1 sequence (P19784 whole entry): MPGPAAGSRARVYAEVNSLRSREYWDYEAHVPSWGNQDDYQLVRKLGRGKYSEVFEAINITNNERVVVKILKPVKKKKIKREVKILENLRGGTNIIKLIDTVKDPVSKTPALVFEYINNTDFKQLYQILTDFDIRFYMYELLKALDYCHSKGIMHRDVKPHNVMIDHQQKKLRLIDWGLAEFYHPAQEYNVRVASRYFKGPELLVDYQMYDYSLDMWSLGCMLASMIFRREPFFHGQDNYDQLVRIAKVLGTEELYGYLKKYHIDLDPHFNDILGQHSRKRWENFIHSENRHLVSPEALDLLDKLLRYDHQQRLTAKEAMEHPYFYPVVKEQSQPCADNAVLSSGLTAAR

Row | Compound | IC50 (recombinant CK2A2) | IC50 (recombinant CK2A1) | IC50 (HCT116)
1 | CC(C)CC(=O)N[C@H]1CC[C@H](Nc2cc(NC3CC3)c3ncc(C(=O)Nc4ccnc(Cl)c4)n3n2)CC1 [Example 164, N-(2-chloro-4-pyridinyl)-8-(cyclopropylamino)-6-((trans-4-((3-methylbutanoyl)amino)cyclohexyl)amino) imidazo[1,2-b]pyridazine-3-carboxamide] | 0.0021 µM | 0.0228 µM | > 2.5 µM
2 | COCC(=O)N[C@H]1CC[C@H](Nc2cc(NC3CC3)c3ncc(C(=O)Nc4ccnc(Cl)c4)n3n2)CC1 [Example 167, N-(2-chloro-4-pyridinyl)-8-(cyclopropylamino)-6-((trans-4-((methoxyacetyl)amino)cyclohexyl)amino) imidazo[1,2-b]pyridazine-3-carboxamide] | 0.0004 µM | 0.0265 µM | > 2.5 µM
3 | N[C@@H](C(=O)N[C@H]1CC[C@H](Nc2cc(NC3CC3)c3ncc(C(=O)Nc4ccnc(Cl)c4)n3n2)CC1)c1ccccc1 [Example 172, 6-((trans-4-(((2R)-2-amino-2-phenylacetyl)amino)cyclohexyl)amino)-N-(2-chloro-4-pyridinyl)-8-(cyclopropylamino)imidazo [1,2-b]pyridazine-3-carboxamide] | 0.0009 µM | 0.0373 µM | 0.36 µM
4 | C[C@@H](O)CC(=O)N[C@H]1CC[C@H](Nc2cc(NC3CC3)c3ncc(C(=O)Nc4ccnc(Cl)c4)n3n2)CC1 [Example 195, N-(2-chloro-4-pyridinyl)-8-(cyclopropylamino)-6-((trans-4-(((3R)-3-hydroxybutanoyl)amino)cyclohexyl)amino) imidazo[1,2-b]pyridazine-3-carboxamide] | 0.0017 µM | 0.0174 µM | 0.22 µM
5 | N[C@@H](CO)C(=O)N[C@H]1CC[C@H](Nc2cc(NC3CC3)c3ncc(C(=O)Nc4ccnc(Cl)c4)n3n2)CC1 [Example 197, N-(2-chloro-4-pyridinyl)-8-(cyclopropylamino)-6-((trans-4-(L-serylamino)cyclohexyl)amino)imidazo [1,2-b]pyridazine-3-carboxamide] | 0.0008 µM | 0.0135 µM | 0.23 µM
6 | O=C(Nc1ccnc(Cl)c1)c1cnc2c(NC3CC3)cc(N[C@H]3CC[C@H](NC(=O)C4COCCN4)CC3)nn12 (stereo partly drawn) [Example 198, N-(2-chloro-4-pyridinyl)-8-(cyclopropylamino)-6-((trans-4-((3-morpholinylcarbonyl)amino)cyclohexyl)amino)imidazo [1,2-b]pyridazine-3-carboxamide] | 0.0015 µM | 0.0036 µM | 0.09 µM
7 | N[C@H](Cc1cccnc1)C(=O)N[C@H]1CC[C@H](Nc2cc(NC3CC3)c3ncc(C(=O)Nc4ccnc(Cl)c4)n3n2)CC1 [Example 202, N-(2-chloro-4-pyridinyl)-8-(cyclopropylamino)-6-((trans-4-((3-(3-pyridinyl)-D-alanyl)amino)cyclohexyl)amino)imidazo [1,2-b]pyridazine-3-carboxamide] | 0.0017 µM | 0.0095 µM | 0.43 µM
8 | CN(C)[C@H]1CCN(C(=O)N[C@H]2CC[C@H](Nc3cc(NC4CC4)c4ncc(C(=O)Nc5ccnc(Cl)c5)n4n3)CC2)C1 [Example 272, N-(2-chloro-4-pyridinyl)-8-(cyclopropylamino)-6-((trans-4-((((3S)-3-(dimethylamino)-1-pyrrolidinyl)carbonyl)amino)cyclohexyl)amino) imidazo[1,2-b]pyridazine-3-carboxamide] | 0.0008 µM | 0.0019 µM | 0.4 µM
9 | COCCNC(=O)N[C@H]1CC[C@H](Nc2cc(NC3CC3)c3ncc(C(=O)Nc4ccnc(Cl)c4)n3n2)CC1 [Example 276, N-(2-chloro-4-pyridinyl)-8-(cyclopropylamino)-6-((trans-4-(((2-methoxyethyl)carbamoyl)amino)cyclohexyl)amino)imidazo [1,2-b]pyridazine-3-carboxamide] | 0.0011 µM | 0.0155 µM | 0.16 µM
10 | CCN(C)C(=O)N[C@H]1CC[C@H](Nc2cc(NC3CC3)c3ncc(C(=O)Nc4ccnc(Cl)c4)n3n2)CC1 [Example 278, N-(2-chloro-4-pyridinyl)-8-(cyclopropylamino)-6-((trans-4-((ethyl(methyl)carbamoyl)amino)cyclohexyl)amino)imidazo[1,2-b]pyridazine-3-carboxamide] | 0.0015 µM | 0.0626 µM | 0.5 µM
11 | O=C(Nc1ccncc1F)c1cnc2c(NC3CC3)cc(NC3CCCC3)nn12 [Example 333, 6-(cyclopentylamino)-8-(cyclopropylamino)-N-(3-fluoro-4-pyridinyl)imidazo[1,2-b] pyridazine-3-carboxamide] | 0.005 µM | 0.026 µM | 0.22 µM
12 | N[C@H]1CC[C@H](Nc2cc(Nc3ncccc3O)c3ncc(C(=O)Nc4ccncc4)n3n2)CC1 [Example 378, 6-((trans-4-aminocyclohexyl)amino)-8-((3-hydroxy-2-pyridinyl)amino)-N-4-pyridinyl-imidazo[1,2-b]pyridazine-3-carboxamide] | 0.29 µM | 0.205 µM | > 1 µM
13 | N[C@H]1CC[C@H](Nc2cc(NC3CC3)c3ncc(C(=O)Nc4ccncc4)n3n2)CC1 [Example 390, 6-((trans-4-aminocyclohexyl)amino)-8-(cyclopropylamino)-N-4-pyridinylimidazo [1,2-b]pyridazine-3-carboxamide] | 0.006 µM | 0.015 µM | 0.3 µM
14 | N[C@H]1CC[C@H](Nc2cc(Nc3ccc(CN4CCOCC4)cc3)c3ncc(C(=O)Nc4ccncc4)n3n2)CC1 [Example 414, 6-((trans-4-aminocyclohexyl)amino)-8-((4-(4-morpholinylmethyl)phenyl)amino)-N-4-pyridinylimidazo[1,2-b]pyridazine-3-carboxamide] | 0.047 µM | 0.115 µM | 0.54 µM
15 | N[C@H]1CC[C@H](Nc2cc(NC3CC3)c3ncc(C(=O)Nc4ccncc4F)n3n2)CC1 [Example 468, 6-((trans-4-aminocyclohexyl)amino)-8-(cyclopropylamino)-N-(3-fluoro-4-pyridinyl)imidazo [1,2-b]pyridazine-3-carboxamide] | 0.003 µM | 0.007 µM | 0.09 µM
16 | N[C@H]1CC[C@H](Nc2cc(NC3CCC3)c3ncc(C(=O)Nc4ccncc4F)n3n2)CC1 [Example 469, 6-((trans-4-aminocyclohexyl)amino)-8-(cyclobutylamino)-N-(3-fluoro-4-pyridinyl)imidazo [1,2-b]pyridazine-3-carboxamide] | 0.005 µM | 0.019 µM | 0.05 µM
17 | N[C@H]1CC[C@H](Nc2cc(N[C@H]3C[C@@H](CO)C3)c3ncc(C(=O)Nc4ccncc4F)n3n2)CC1 [Example 476, 6-((trans-4-aminocyclohexyl)amino)-N-(3-fluoro-4-pyridinyl)-8-((cis-3-(hydroxymethyl)cyclobutyl)amino) imidazo[l,2-b]pyridazine-3-carboxamide] | 0.046 µM | 0.043 µM | 2.31 µM
18 | N[C@H]1CC[C@H](Nc2cc(Nc3cccc(N4CCNCC4)n3)c3ncc(C(=O)Nc4ccncc4F)n3n2)CC1 [Example 481, 6-((trans-4-aminocyclohexyl)amino)-N-(3-fluoro-4-pyridinyl)-8-((6-(1-piperazinyl)-2-pyridinyl)amino)imidazo [1,2-b]pyridazine-3-carboxamide] | 0.034 µM | 0.121 µM | > 2.5 µM
19 | CN(C)CCOc1ccc(Nc2cc(N[C@H]3CC[C@H](N)CC3)nn3c(C(=O)Nc4ccncc4F)cnc23)cc1 [Example 501, 6-((trans-4-aminocyclohexyl)amino)-8-((4-(2-(dimethylamino)ethoxy)phenyl)amino)-N-(3-fluoro-4-pyridinyl)imidazo[1,2-b]pyridazine-3-carboxamide] | 0.087 µM | 0.234 µM | 0.45 µM
20 | N[C@H]1CC[C@H](Nc2cc(Nc3ccccc3)c3ncc(C(=O)Nc4ccncn4)n3n2)CC1 [Example 518, 6-((trans-4-aminocyclohexyl)amino)-8-anilino-N-4-pyrimidinylimidazo[1,2-b] pyridazine-3-carboxamide] | 0.042 µM | 0.058 µM | 0.17 µM
21 | O=C(Nc1ccncc1F)c1cnc2c(NC3CC3)cc(N[C@H]3CC[C@H](NCC(O)CO)CC3)nn12 (stereo partly drawn) [Example 524, 8-(cyclopropylamino)-6-((trans-4-((2,3-dihydroxypropyl)amino)cyclohexyl)amino)-N-(3-fluoro-4-pyridinyl)imidazo [1,2-b]pyridazine-3-carboxamide] | 0.004 µM | 0.021 µM | 1.15 µM
22 | NCCN[C@H]1CC[C@H](Nc2cc(NC3CC3)c3ncc(C(=O)Nc4ccnc(F)c4)n3n2)CC1 [Example 526, 6-((trans-4-((2-aminoethyl)amino)cyclohexyl)amino)-8-(cyclopropylamino)-N-(2-fluoro-4-pyridinyl)imidazo [1,2-b]pyridazine-3-carboxamide] | 0.061 µM | 0.153 µM | > 2.5 µM
